Among the test systems are Streptococcus sanguinis; Staphylococcus aureus; Escherichia coli UB1005; Candida albicans C627; Escherichia coli DC2; Escherichia coli C600; Escherichia coli INV-a; Pseudomonas aeruginosa.
Test in all cases: ≥ marks a high value that may be exact or a test limit, other limits are often not marked, values filed in µg/mL are converted to µM
Assay [1] relates to Escherichia coli CGSC 4908.
Assay [2] concerns Aeromonas salmonicida 99-1.
The subject of assay [3] is Staphylococcus epidermidis C621.
In assay [4] the test system is Staphylococcus aureus C623.
Assay [5] has as its system Aeromonas salmonicida 97-4.
Assay [6] deals with Salmonella enterica serovar typhimurium MS7953s.
Assay [7] concerns Pseudomonas aeruginosa Z61.
Assay [8] relates to Pseudomonas aeruginosa K799.
Assay [9] concerns Salmonella enterica subsp. enterica serovar Typhimurium ATCC 14028s.
Assay [10] has as its system Bacillus subtilis VKM B-501.
The test system of assay [11] is Staphylococcus aureus 209P.
In assay [12] the test system is Lactococcus lactis MG1363.
The test system of assay [13] is Pseudomonas aeruginosa ATCC 27853.
The test system of assay [14] is Staphylococcus aureus ATCC 29213.
For assay [15], the system named is Staphylococcus pseudintermedius.
For assay [16], the system named is Bacillus subtilis KCTC 3068.
Assay [17] relates to Acinetobacter baumannii CCARM 12035.
In assay [18] the test system is Pseudomonas aeruginosa CCARM 2002.
For assay [19], the system named is Staphylococcus epidermidis KCTC 1917.
The test system of assay [20] is Salmonella typhimurium CCARM 8007.
Assay [21] has as its system Acinetobacter baumannii KCTC 2508.
Assay [22] has as its system Escherichia coli KCTC 1682.
For assay [23], the system named is Salmonella typhimurium KCTC 1926.
Assay [24] has as its system Pseudomonas aeruginosa KCTC 2004.
In assay [25] the test system is Staphylococcus aureus KCTC 1621.
Assay [26] deals with Escherichia coli CCARM 1229.
For assay [27], the system named is Staphylococcus aureus CCARM 3126.

Each structure is given as a SMILES string. ≈ marks a conversion by molar mass, not a printed value.

Usually MIC stands for the lowest concentration found to suppress growth. The low end stands for a more susceptible organism, the high end for a less susceptible organism. As for `CC[C@H](C)[C@H](NC(=O)[C@H](Cc1ccccc1)NC(=O)[C@@H](N)Cc1ccccc1)C(=O)N[C@@H](Cc1ccccc1)C(=O)N[C@@H](Cc1ccccc1)C(=O)N[C@@H](Cc1ccccc1)C(N)=O` [FFIFFF], the results for the minimal inhibitory concentration (MIC) in the assay on Streptococcus sanguinis and in the assay on Staphylococcus aureus were at least 32.6 µM and 14.8 µM (≈ 12.8 µg/mL), respectively.
With `CC[C@H](C)[C@H](NC(=O)CNC(=O)[C@H](Cc1cnc[nH]1)NC(=O)[C@H](CC(C)C)NC(=O)CNC(=O)[C@H](CC(C)C)NC(=O)[C@H](CCCCN)NC(=O)[C@H](Cc1ccccc1)NC(=O)[C@H](CC(C)C)NC(=O)[C@H](CCCCN)NC(=O)CNC(=O)[C@H](Cc1c[nH]c2ccccc12)NC(=O)[C@H](Cc1ccccc1)NC(=O)CN)C(=O)NCC(=O)N[C@@H](CC(C)C)C(=O)N[C@@H](CC(C)C)C(=O)N[C@@H](Cc1cnc[nH]1)C(=O)N[C@@H](CC(C)C)C(=O)N[C@@H](Cc1cnc[nH]1)C(=O)N[C@@H](CC(C)C)C(C)=O` [GFWGKLFKLGLHGIGLLHLHL], the MIC in assay [1] was found to be 3.39 µM (≈ 7.99 µg/mL); in assay [2] it was 3.39 µM (≈ 7.99 µg/mL); in [3], 1.7 µM (≈ 4 µg/mL); in [4] it was 1.7 µM (≈ 4 µg/mL); in assay [5], 6.79 µM (≈ 16 µg/mL); in the assay on Escherichia coli UB1005, 3.39 µM (≈ 7.99 µg/mL). Besides, the MIC stood at 6.79 µM (≈ 16 µg/mL) with Candida albicans C627; 1.7 µM (≈ 4 µg/mL) in assay [6]; 3.39 µM (≈ 7.99 µg/mL) with Escherichia coli DC2; 1.7 µM (≈ 4 µg/mL) in [7]; 3.39 µM (≈ 7.99 µg/mL) in assay [8]; 6.79 µM (≈ 16 µg/mL) in [9].
`CC[C@H](C)[C@H](NC(=O)[C@H](C)NC(=O)[C@H](CCCCN)NC(=O)[C@H](CCCN=C(N)N)NC(=O)CNC(=O)[C@H](Cc1ccccc1)NC(=O)[C@H](CCCCN)NC(=O)[C@H](CCCCN)NC(=O)[C@@H](NC(=O)[C@H](CC(C)C)NC(=O)[C@H](CCCCN)NC(=O)CN)[C@@H](C)CC)C(=O)N[C@@H](CO)C(=O)N[C@@H](Cc1ccc(O)cc1)C(=O)N[C@@H](C)C(=O)N[C@H](C(=O)N[C@@H](CCCCN)C(=O)N[C@@H](CCCCN)C(=O)N[C@@H](C)C(=O)N[C@@H](CCCN=C(N)N)C(=O)NCC(=O)N[C@@H](CCCCN)C(=O)N[C@@H](Cc1cnc[nH]1)C(=O)O)C(C)C` [GKLIKKFGRKAISYAVKKARGKH]: the MIC in assay [10] was 0.7 µM (≈ 1.81 µg/mL); against Escherichia coli C600, 6 µM (≈ 15.5 µg/mL); in assay [11], at least 36 µM.
As to `CC[C@H](C)[C@H](N)C(=O)N[C@@H](CC(N)=O)C(=O)N[C@@H](Cc1c[nH]c2ccccc12)C(=O)N[C@@H](CCCCN)C(=O)NCC(=O)N[C@H](C(=O)N[C@@H](C)C(=O)N[C@@H](CC(C)C)C(=O)N[C@@H](CCSC)C(=O)N[C@@H](C)C(=O)N[C@@H](CCCCN)C(=O)N[C@@H](CCCCN)C(=O)N[C@@H](CC(C)C)C(=O)N[C@@H](CC(C)C)C(N)=O)[C@@H](C)CC` [INWKGIALMAKKLL], the values for the minimal inhibitory concentration (MIC) (in assay [12]; with Escherichia coli INV-a) were 2.5 µM (≈ 4 µg/mL) and 7 µM (≈ 11.2 µg/mL), respectively.
On to `CC(=O)N[C@@H](CCCN=C(N)N)C(=O)N[C@@H](CCCCN)C(=O)N[C@@H](Cc1ccccc1)C(=O)N[C@@H](CC(C)C)C(=O)N[C@@H](CCCN=C(N)N)C(=O)N[C@@H](CCCN=C(N)N)C(=O)N[C@@H](CCCN=C(N)N)C(=O)NCC(=O)N[C@@H](CCC(=O)O)C(=O)N[C@H](C(=O)N[C@@H](C)C(=O)N[C@@H](Cc1cnc[nH]1)C(=O)N[C@@H](Cc1ccccc1)C(=O)N[C@@H](CO)C(=O)N[C@@H](CCC(N)=O)C(=O)N[C@@H](CCCCN)C(=O)N[C@@H](CO)C(=O)N[C@@H](CC(C)C)C(=O)NCC(=O)N[C@@H](CC(C)C)C(=O)N[C@@H](Cc1ccc(O)cc1)C(=O)N[C@@H](CS)C(=O)N[C@@H](Cc1c[nH]c2ccccc12)C(=O)N[C@@H](Cc1c[nH]c2ccccc12)C(=O)N[C@@H](Cc1c[nH]c2ccccc12)C(N)=O)C(C)C` [RKFLRRRGEVAHFSQKSLGLYCWWW], for which the minimum inhibitory concentration (MIC) in assay [13] is 19.9 µM (≈ 64.8 µg/mL); in the assay on Pseudomonas aeruginosa it was 39.9 µM (≈ 130 µg/mL); in assay [14], 19.9 µM (≈ 64.8 µg/mL); in assay [15] it was at least 39.9 µM.
For `CC[C@H](C)[C@H](NC(=O)[C@H](CCCCN)NC(=O)[C@H](Cc1c[nH]c2ccccc12)NC(=O)[C@@H](N)CCCN=C(N)N)C(=O)N[C@@H](Cc1ccccc1)C(=O)N[C@@H](CCCCN)C(=O)N[C@@H](CCCCN)C(=O)N[C@H](C(=O)N[C@H](C(=O)N[C@@H](CCCCN)C(=O)N[C@@H](CCCCN)C(=O)N[C@@H](Cc1c[nH]c2ccccc12)C(N)=O)C(C)C)C(C)C` [RWKIFKKVVKKW], the MIC was 8 µM (≈ 13.2 µg/mL) in [16]; 4 µM (≈ 6.58 µg/mL) in assay [17]; 8 µM (≈ 13.2 µg/mL) in assay [18]; 8 µM (≈ 13.2 µg/mL) in assay [19]; 8 µM (≈ 13.2 µg/mL) in assay [20]; 4 µM (≈ 6.58 µg/mL) in [21]. For the same molecule, the minimal inhibitory concentration (MIC) was 4 µM (≈ 6.58 µg/mL) in [22]; 8 µM (≈ 13.2 µg/mL) in [23]; 4 µM (≈ 6.58 µg/mL) in assay [24]; 4 µM (≈ 6.58 µg/mL) in assay [25]; 8 µM (≈ 13.2 µg/mL) in assay [26]; 8 µM (≈ 13.2 µg/mL) in assay [27].

Source of the values: DBAASP.
